Source: patent US11866437B1, “1,2-dioxo-2,3-dihydro-1H-pyrrolo[2,3-c]quinoline-7-carboxylic acid compounds as CK2 inhibitors” (KING FAISAL UNIVERSITY, priority 2023, dated 2024)

Experiments:
HL60 (leukemia) = test: In vitro cytotoxic activity MTT assay, HL60; type: cell-based; details: Homo sapiens, HL-60; HL60 cells, exposed for 96 hours; read-out: IC50, 50% inhibition of cell proliferation, HL60 (leukemia)
Experimental: (§1) Compounds 1-16 were screened for their in vitro cytotoxic activity utilizing a 3-(4,5-dimethyl-thiazol-2-yl)-2,5-diphenyltetrazolium bromide (MTT) assay against selected cancer human cell lines consisting of PC3 (prostate), HCT116 (colon), A375 (melanoma), H1299 (lung), MIAPaCa-2 (pancreas), HL60 (leukemia), MCF7 (breast), MDA-MB-231 (breast) (T. Mosmann, J. Immunol. Meth., 1983, 65, 55-63). The cells were cultured at 37° C. in RMPI1640 medium supplemented with 10% fetal bovine serum, 50 IU/mL penicillin, and 50 μg/mL streptomycin in a 5% CO2 incubator. All cells were sub-cultured 3 times/week by trypsinisation. Viable cells were seeded and allowed to adhere for 12 h before a test drug was added in 96-well plates at an initial density of 1.0×10^5 cells/mL. Tumour cell lines were separately exposed to various concentrations of the tested compounds followed by incubation at a temperature of 37° C. during 96 h inside a medium of fresh RMPI 1640. Cells were subsequently incubated at 37° C. using MTT at 0.5 mg/mL during 4 h. After removal of supernatant, formazan crystals were dissolved in isopropanol and the optical density was measured at 570 nm. CX-4945 was used as a positive control.

MCF7 (breast) = test: In vitro cytotoxic activity MTT assay, MCF7; type: cell-based; details: Homo sapiens; MCF7 cells, exposed for 96 hours; read-out: IC50, 50% inhibition of cell proliferation, MCF7 (breast)
Experimental: as §1

recombinant human CK2 = molecular target: T1, recombinant human CK2 (Homo sapiens, UniProt P68400); test: CK2 Kinase Assay (33P-ATP, substrate peptide RRRDDDSDDD); type: biochemical; details: final ATP concentration 15 μM, 10 min at 30° C.; read-out: protein kinase CK2 IC50
T1 construct: purchased Millipore
T1 sequence (P68400 whole entry): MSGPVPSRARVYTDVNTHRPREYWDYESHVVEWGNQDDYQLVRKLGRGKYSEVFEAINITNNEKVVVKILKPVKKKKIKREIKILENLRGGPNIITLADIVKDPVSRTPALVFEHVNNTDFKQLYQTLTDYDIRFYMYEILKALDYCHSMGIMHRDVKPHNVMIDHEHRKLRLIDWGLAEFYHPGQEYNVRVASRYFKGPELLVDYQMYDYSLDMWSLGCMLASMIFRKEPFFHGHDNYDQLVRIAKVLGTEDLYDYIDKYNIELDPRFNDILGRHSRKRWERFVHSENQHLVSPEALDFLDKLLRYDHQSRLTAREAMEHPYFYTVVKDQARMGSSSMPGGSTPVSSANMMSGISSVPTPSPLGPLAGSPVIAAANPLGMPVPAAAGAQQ
T1 sequence (P67870 whole entry partner): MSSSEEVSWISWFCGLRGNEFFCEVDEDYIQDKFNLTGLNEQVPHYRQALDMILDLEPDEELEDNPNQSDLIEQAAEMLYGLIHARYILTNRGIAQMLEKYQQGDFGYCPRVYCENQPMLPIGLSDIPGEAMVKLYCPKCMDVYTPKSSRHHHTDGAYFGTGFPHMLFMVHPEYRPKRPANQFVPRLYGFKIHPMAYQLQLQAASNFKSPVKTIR
Experimental: CK2 Kinase Assay was conducted using the protocol as described in Pierre F. et al; J. Med. Chem. 2011, 54, 635-654. The tested compounds in aqueous solution were added at a volume of 10 μL to a reaction mixture comprising 10 μL of assay dilution buffer (ADB; 20 mM MOPS, pH 7.2, 25 mM β-glycerol phosphate, 5 mM EGTA, 1 mM sodium orthovanadate, and 1 mM dithiothreitol), 10 μL of substrate peptide (RRRDDDSDDD, dissolved in ADB at a concentration of 1 mM), 10 μL of recombinant human CK2 (RR-holoenzyme, 25 ng dissolved in ADB; Millipore). Reactions were initiated by the addition of 10 μL of ATP solution (90% 75 mMMgCl2, 75 μM ATP (final ATP concentration:15 μM) dissolved in ADB; 10% [γ-33P] ATP (stock 1 mCi/100 μL; 3000 Ci/mmol (Perkin-Elmer) and maintained for 10 min at 30° C. The reactions were quenched with 100 μL of 0.75% phosphoric acid and then transferred to and filtered through a phosphor cellulose filter plate (Millipore). After washing each well five times with 0.75% phosphoric acid, the plate was dried under vacuum for 5 min and, following the addition of 15 μL of scintillation fluid to each well, the residual radioactivity was measured using a Wallac […] counter. The IC50 values were derived from eight concentrations of test inhibitors.

HCT116 (colon) = test: In vitro cytotoxic activity MTT assay, HCT116; type: cell-based; details: Homo sapiens, HCT-116; HCT116 cells, exposed for 96 hours; read-out: IC50, 50% inhibition of cell proliferation, HCT116 (colon)
Experimental: as §1

A375 (melanoma) = test: In vitro cytotoxic activity MTT assay, A375; type: cell-based; details: Homo sapiens, A-375; A375 cells, exposed for 96 hours; read-out: IC50, 50% inhibition of cell proliferation, A375 (melanoma)
Experimental: as §1

H1299 (lung) = test: In vitro cytotoxic activity MTT assay, H1299; type: cell-based; details: Homo sapiens, NCI-H1299; H1299 cells, exposed for 96 hours; read-out: IC50, 50% inhibition of cell proliferation, H1299 (lung)
Experimental: as §1

PC3 (prostate) = test: In vitro cytotoxic activity MTT assay, PC3; type: cell-based; details: Homo sapiens, PC-3; PC3 cells, exposed for 96 hours; read-out: IC50, 50% inhibition of cell proliferation, PC3 (prostate)
Experimental: as §1

MIAPaCa-2 (pancreas) = test: In vitro cytotoxic activity MTT assay, MIAPaCa-2; type: cell-based; details: Homo sapiens, MIA PaCa-2; MIAPaCa-2 cells, exposed for 96 hours; read-out: IC50, 50% inhibition of cell proliferation, MIAPaCa-2 (pancreas)
Experimental: as §1

MDA-MB-231 (breast) = test: In vitro cytotoxic activity MTT assay, MDA-MB-231; type: cell-based; details: Homo sapiens; MDA-MB-231 cells, exposed for 96 hours; read-out: IC50, 50% inhibition of cell proliferation, MDA-MB-231 (breast)
Experimental: as §1

O=C1Nc2c(Nc3cccc(Cl)c3)nc3cc(C(=O)O)ccc3c2C1=O [Compound 1, 4-((3-chlorophenyl)amino)-1,2-dioxo-2,3-dihydro-1H-pyrrolo[2,3-c]quinoline-7-carboxylic acid]
IC50 (HL60 (leukemia)): 2900 nM
IC50 (MCF7 (breast)): 5.1 µM
IC50 (recombinant human CK2): 19 nM
IC50 (HCT116 (colon)): 1100 nM
IC50 (A375 (melanoma)): 2300 nM
IC50 (H1299 (lung)): 1600 nM
IC50 (PC3 (prostate)): 900 nM
IC50 (MIAPaCa-2 (pancreas)): 1500 nM
IC50 (MDA-MB-231 (breast)): 3.8 µM
